Measurements taken from patent US20230234962A1, “OXA-AZASPIRO DERIVATIVE, AND PREPARATION METHOD THEREFOR AND PHARMACEUTICAL USE THEREOF” (priority 2020, published 2023).
Where two headings read alike, the source gives them in different places.

Legend:
Type in all cases: biochemical
PI3Kδ enzyme = PI3Kδ enzyme (Homo sapiens, UniProt O00329); assay: ADP-Glo kinase assay, inhibition of PI3Kδ enzyme
Protocol: (§1) In this experiment, an ADP-Glo™ kinase assay kit is used. A substrate is phosphorylated under the action of enzyme, and ADP is generated at the same time. An ADP-Glo Reagent is added to remove unreacted ATP in the reaction system, and the ADP generated by the reaction is detected by a kinase detection reagent. In the presence of a compound, the inhibition rate of the compound is calculated by measuring the signal value.
(§2) Test compounds were each subjected to 3-fold dilution from a starting concentration of 10000 nM to obtain 11 concentrations, and duplicate wells were set for the test. Gradient dilution to a corresponding 100-fold final concentration in a 384-well plate was performed to obtain solutions with 11 different concentrations. 50 nL of each solution was transferred to compound wells of a 384-well plate with Echo; negative control wells were added with 50 nL of DMSO. A kinase solution with a 2-fold final concentration was prepared using 1×kinase buffer. 2.5 μL of the kinase solution with a 2-fold final concentration was added to the compound wells; 2.5 μL of the 1× kinase buffer was added to the negative control wells. The mixture was centrifuged at 1000 rpm for 30 s, mixed well by shaking, and then incubated at room temperature for 10 min. A mixed solution of ATP and substrate P1P2 with a 2-fold final concentration was prepared using 1× kinase buffer. The reaction was initiated by adding 2.5 μL of the mixed solution of ATP and substrate with a 2-fold final concentration. The mixture in the 384-well plate was centrifuged at 1000 rpm for 30 s, mixed well by shaking, and then reacted at room temperature for 120 min. 5 μL of ADP-Glo reagent was added, and the mixture was centrifuged at 1000 rpm for 30 s, mixed well by shaking, and then incubated at room temperature for 40 min. 10 μL of kinase detection reagent was added, and the resulting mixture was centrifuged at 1000 rpm for 30 s, mixed well by shaking, and then incubated at room temperature for 30 min. The luminescence RLU was read with an Envision microplate reader.
(§3) IC50 values for the inhibitory activity of the compounds were calculated using Graphpad Prism software.

PI3Kα enzyme = PI3Kα enzyme (Homo sapiens, UniProt P42336); assay: ADP-Glo kinase assay, selectivity, PI3Kα enzyme; details: 11 concentrations from 10000 nM
Chain of PI3Kα enzyme (P42336 whole entry): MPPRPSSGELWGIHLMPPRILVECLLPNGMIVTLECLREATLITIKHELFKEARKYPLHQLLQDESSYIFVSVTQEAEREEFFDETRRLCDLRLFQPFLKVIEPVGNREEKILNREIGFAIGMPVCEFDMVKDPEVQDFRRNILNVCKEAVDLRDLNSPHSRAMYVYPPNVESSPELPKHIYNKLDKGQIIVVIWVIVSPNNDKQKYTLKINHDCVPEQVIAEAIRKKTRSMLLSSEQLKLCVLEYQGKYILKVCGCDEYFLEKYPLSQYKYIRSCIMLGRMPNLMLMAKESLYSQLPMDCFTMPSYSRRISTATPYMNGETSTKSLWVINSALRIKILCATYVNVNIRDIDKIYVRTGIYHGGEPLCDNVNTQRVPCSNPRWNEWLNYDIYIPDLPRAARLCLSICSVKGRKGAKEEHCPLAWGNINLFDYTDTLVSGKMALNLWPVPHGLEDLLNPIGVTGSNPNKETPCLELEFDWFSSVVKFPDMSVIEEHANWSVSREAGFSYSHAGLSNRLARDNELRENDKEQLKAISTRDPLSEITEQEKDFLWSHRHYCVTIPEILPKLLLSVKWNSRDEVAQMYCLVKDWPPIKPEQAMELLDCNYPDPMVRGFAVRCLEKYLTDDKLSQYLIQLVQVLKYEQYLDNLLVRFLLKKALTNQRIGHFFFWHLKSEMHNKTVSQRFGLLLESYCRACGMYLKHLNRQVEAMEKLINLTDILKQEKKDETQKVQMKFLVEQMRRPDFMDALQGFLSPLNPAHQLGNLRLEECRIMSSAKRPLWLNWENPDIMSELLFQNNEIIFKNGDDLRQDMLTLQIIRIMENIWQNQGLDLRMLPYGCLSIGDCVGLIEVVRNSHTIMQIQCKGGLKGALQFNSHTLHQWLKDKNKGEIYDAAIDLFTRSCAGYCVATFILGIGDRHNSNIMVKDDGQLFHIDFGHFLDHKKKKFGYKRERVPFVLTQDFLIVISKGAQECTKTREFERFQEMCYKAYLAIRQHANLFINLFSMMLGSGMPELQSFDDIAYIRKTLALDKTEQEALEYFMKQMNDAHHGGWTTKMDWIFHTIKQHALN
Chain of PI3Kα enzyme (P27986 whole entry, further chain): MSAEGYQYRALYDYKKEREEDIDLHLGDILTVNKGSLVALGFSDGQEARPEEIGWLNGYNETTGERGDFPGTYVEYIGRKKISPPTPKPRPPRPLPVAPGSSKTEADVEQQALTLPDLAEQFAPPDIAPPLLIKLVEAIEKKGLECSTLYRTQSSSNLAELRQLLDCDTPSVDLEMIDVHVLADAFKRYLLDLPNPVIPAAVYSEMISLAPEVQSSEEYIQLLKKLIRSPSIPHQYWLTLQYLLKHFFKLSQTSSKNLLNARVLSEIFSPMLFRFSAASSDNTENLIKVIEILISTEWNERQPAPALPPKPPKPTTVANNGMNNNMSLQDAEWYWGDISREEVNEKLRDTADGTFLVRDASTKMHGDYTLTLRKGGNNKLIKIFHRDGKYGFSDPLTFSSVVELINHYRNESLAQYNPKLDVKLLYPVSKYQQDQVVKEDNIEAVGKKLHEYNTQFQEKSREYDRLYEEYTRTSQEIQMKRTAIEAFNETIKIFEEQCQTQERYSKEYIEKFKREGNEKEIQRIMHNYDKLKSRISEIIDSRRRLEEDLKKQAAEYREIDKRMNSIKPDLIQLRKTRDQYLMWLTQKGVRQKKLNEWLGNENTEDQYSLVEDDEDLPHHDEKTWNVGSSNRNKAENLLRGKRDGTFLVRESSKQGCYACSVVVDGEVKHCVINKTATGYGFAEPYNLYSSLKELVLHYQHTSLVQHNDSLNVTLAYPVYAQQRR
Protocol: as §1, §2, §3

PI3Kγ enzyme = PI3Kγ enzyme (Homo sapiens, UniProt P48736); assay: ADP-Glo kinase assay, selectivity, PI3Kγ enzyme; details: 11 concentrations from 10000 nM
Chain of PI3Kγ enzyme (P48736 whole entry): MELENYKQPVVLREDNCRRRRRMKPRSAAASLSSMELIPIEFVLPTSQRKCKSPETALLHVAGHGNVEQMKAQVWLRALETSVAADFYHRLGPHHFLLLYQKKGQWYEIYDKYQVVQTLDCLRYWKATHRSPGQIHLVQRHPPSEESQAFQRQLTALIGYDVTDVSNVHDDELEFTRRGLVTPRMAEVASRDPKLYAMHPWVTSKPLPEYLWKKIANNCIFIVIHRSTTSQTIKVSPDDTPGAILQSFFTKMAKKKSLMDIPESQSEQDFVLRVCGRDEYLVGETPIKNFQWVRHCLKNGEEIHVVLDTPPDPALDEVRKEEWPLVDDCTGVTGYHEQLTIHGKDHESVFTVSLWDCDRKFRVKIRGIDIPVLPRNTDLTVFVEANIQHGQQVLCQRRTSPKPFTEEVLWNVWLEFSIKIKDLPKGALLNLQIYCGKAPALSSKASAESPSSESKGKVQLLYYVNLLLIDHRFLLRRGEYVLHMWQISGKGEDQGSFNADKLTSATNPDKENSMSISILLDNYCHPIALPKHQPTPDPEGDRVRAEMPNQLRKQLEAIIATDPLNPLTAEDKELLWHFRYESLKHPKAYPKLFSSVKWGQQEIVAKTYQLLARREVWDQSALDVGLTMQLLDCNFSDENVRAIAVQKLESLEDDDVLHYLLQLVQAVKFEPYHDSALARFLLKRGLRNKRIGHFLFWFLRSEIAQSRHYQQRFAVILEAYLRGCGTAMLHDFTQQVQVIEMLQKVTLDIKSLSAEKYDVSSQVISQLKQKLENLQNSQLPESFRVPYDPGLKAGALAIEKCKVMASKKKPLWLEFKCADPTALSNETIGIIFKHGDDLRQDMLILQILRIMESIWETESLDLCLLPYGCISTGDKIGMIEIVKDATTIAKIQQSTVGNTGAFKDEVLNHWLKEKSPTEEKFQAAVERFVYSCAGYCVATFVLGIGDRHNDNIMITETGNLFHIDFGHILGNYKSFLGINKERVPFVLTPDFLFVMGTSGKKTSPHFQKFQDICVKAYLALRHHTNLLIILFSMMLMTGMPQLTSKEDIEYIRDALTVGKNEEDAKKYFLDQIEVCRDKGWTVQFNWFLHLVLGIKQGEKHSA
Protocol: as §1, §2, §3

PI3Kβ enzyme = PI3Kβ enzyme (Homo sapiens, UniProt P42338); assay: ADP-Glo kinase assay, selectivity, PI3Kβ enzyme; details: 11 concentrations from 10000 nM
Chain of PI3Kβ enzyme (P27986 whole entry): as the sequence (P27986 whole entry, further chain) above
Chain of PI3Kβ enzyme (P42338 whole entry): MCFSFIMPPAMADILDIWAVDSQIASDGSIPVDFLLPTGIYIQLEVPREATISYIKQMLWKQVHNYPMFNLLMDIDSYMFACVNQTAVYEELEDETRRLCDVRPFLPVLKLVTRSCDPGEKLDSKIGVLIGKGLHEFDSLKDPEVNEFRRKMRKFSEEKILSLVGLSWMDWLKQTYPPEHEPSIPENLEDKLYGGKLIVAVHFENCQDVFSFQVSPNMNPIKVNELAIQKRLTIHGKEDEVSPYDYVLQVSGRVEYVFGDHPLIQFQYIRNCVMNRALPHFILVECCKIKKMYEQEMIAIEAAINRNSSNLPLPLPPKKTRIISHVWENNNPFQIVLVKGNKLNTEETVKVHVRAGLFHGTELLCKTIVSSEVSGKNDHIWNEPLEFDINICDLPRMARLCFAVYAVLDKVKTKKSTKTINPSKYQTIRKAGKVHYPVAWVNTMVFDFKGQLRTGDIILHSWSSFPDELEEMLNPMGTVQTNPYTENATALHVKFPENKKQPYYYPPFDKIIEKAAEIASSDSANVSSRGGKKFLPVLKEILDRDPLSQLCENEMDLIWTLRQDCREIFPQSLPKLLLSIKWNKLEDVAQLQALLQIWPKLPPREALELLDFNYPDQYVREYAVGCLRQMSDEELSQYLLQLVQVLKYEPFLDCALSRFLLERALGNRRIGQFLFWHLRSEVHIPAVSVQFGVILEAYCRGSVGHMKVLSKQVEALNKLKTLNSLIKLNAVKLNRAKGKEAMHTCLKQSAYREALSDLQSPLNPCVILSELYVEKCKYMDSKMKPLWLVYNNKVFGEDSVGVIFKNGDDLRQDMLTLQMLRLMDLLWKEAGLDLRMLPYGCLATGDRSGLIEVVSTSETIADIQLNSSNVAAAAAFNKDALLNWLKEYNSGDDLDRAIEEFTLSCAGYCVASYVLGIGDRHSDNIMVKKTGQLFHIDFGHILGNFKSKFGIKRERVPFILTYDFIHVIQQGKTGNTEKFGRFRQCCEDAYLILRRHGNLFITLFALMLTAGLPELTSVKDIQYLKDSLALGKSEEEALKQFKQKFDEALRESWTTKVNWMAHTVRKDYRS
Protocol: as §1, §2, §3

[1] = ADP-Glo, PIK3CD/PIK3R1, 11 concentrations from 10000 nM, read-out: PI3Kδ enzyme IC50

Chain of PI3Kδ enzyme (O00329 whole entry): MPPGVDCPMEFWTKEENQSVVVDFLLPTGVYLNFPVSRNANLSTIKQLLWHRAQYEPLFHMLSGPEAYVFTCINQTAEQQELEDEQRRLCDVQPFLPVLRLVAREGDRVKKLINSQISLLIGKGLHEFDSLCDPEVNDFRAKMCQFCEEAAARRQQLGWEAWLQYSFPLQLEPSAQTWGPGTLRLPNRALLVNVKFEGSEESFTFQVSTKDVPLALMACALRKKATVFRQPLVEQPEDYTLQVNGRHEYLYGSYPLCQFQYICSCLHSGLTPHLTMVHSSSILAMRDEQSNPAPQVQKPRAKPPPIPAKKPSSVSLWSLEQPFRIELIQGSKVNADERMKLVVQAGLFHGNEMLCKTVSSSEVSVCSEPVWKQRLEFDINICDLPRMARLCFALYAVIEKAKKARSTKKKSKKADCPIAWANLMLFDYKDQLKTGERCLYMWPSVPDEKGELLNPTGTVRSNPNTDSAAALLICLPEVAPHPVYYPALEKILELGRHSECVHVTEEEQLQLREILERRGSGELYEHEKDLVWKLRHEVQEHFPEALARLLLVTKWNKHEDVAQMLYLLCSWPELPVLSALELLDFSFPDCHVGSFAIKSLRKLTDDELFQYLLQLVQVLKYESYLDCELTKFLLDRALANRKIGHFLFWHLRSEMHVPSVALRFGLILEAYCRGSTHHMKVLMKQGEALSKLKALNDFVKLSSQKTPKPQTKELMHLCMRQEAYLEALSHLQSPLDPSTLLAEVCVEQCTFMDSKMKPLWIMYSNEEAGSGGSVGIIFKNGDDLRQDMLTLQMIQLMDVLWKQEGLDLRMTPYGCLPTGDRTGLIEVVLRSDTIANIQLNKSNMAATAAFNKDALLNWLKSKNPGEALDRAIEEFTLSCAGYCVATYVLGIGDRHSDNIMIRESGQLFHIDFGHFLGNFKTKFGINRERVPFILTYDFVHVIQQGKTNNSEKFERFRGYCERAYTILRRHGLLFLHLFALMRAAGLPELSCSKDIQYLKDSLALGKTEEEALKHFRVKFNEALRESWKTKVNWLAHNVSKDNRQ
Chain of PI3Kδ enzyme (P27986 whole entry partner): as the sequence (P27986 whole entry, further chain) above

## O=C(c1nn(-c2ccc(CN3CCOCC3)cc2)c2c1CS(=O)(=O)c1c(F)cccc1-2)N1CCOCC12CC2 [Control Example 10, (6-fluoro-1-(4-(morpholinomethyl)phenyl)-5,5-dioxido-1,4-dihydrothiochromeno[4,3-c]pyrazol-3-yl)(7-oxa-4-azaspiro[2.5]octan-4-yl)methanone, reference compound]
PI3Kδ enzyme
  IC50: > 10000 nM

## O=C(c1nn(-c2ccc(CN3CCOCC3)cc2)c2c1CS(=O)(=O)c1c(F)cccc1-2)N1CCOC2(CC2)C1 [Example 1, (6-fluoro-1-(4-(morpholinomethyl)phenyl)-5,5-dioxido-1,4-dihydrothiochromeno[4,3-c]pyrazol-3-yl)(4-oxa-7-azaspiro[2.5]octan-7-yl)methanone]
PI3Kδ enzyme
  IC50: 13 nM
PI3Kα enzyme
  IC50: 468 nM
PI3Kγ enzyme
  IC50: 6210 nM
PI3Kβ enzyme
  IC50: 1320 nM

## O=C(c1nn(-c2ccc(CN3CCOCC3)cc2)c2c1CS(=O)(=O)c1c(Cl)cccc1-2)N1CCOC2(CC2)C1 [Example 2, (6-chloro-1-(4-(morpholinomethyl)phenyl)-5,5-dioxido-1,4-dihydrothiochromeno[4,3-c]pyrazol-3-yl)(4-oxa-7-azaspiro[2.5]octan-7-yl)methanone]
PI3Kδ enzyme; [1]
  IC50: 18.4 nM

## COc1cccc2c1-c1c(c(C(=O)N3CCOC4(CC4)C3)nn1-c1ccc(CN3CCOCC3)cc1)CS2(=O)=O [Example 3, (9-methoxy-1-(4-(morpholinomethyl)phenyl)-5,5-dioxido-1,4-dihydrothiochromeno[4,3-c]pyrazol-3-yl)(4-oxa-7-azaspiro[2.5]octan-7-yl)methanone]
PI3Kδ enzyme; [1]
  IC50: 5.6 nM

## COc1ccc2c(c1)S(=O)(=O)Cc1c(C(=O)N3CCOC4(CC4)C3)nn(-c3ccc(CN4CCOCC4)cc3)c1-2 [Example 4, (7-methoxy-1-(4-(morpholinomethyl)phenyl)-5,5-dioxido-1,4-dihydrothiochromeno[4,3-c]pyrazol-3-yl)(4-oxa-7-azaspiro[2.5]octan-7-yl)methanone]
PI3Kδ enzyme; [1]
  IC50: 7.9 nM

## COc1cccc2c1S(=O)(=O)Cc1c(C(=O)N3CCOC4(CC4)C3)nn(-c3ccc(CN4CCOCC4)cc3)c1-2 [Example 5, (6-methoxy-1-(4-(morpholinomethyl)phenyl)-5,5-dioxido-1,4-dihydrothiochromeno[4,3-c]pyrazol-3-yl)(4-oxa-7-azaspiro[2.5]octan-7-yl)methanone]
PI3Kδ enzyme
  IC50: 19 nM
PI3Kα enzyme
  IC50: 2330 nM
PI3Kγ enzyme
  IC50: > 10000 nM
PI3Kβ enzyme
  IC50: 2790 nM

## Cc1cccc2c1S(=O)(=O)Cc1c(C(=O)N3CCOC4(CC4)C3)nn(-c3ccc(CN4CCOCC4)cc3)c1-2 [Example 6, (6-methyl-1-(4-(morpholinomethyl)phenyl)-5,5-dioxido-1,4-dihydrothiochromeno[4,3-c]pyrazol-3-yl)(4-oxa-7-azaspiro[2.5]octan-7-yl)methanone]
PI3Kδ enzyme
  IC50: 68 nM
PI3Kα enzyme
  IC50: 2570 nM
PI3Kγ enzyme
  IC50: > 10000 nM
PI3Kβ enzyme
  IC50: 7060 nM

## O=C(c1nn(-c2ccc(CN3CCOCC3)cc2)c2c1CS(=O)(=O)c1cc(Cl)ccc1-2)N1CCOC2(CC2)C1 [Example 7, (7-chloro-1-(4-(morpholinomethyl)phenyl)-5,5-dioxido-1,4-dihydrothiochromeno[4,3-c]pyrazol-3-yl)(4-oxa-7-azaspiro[2.5]octan-7-yl)methanone]
PI3Kδ enzyme
  IC50: 26.5 nM
PI3Kα enzyme
  IC50: 1520 nM
PI3Kγ enzyme
  IC50: > 10000 nM
PI3Kβ enzyme
  IC50: 1740 nM

## Cc1ccc2c(c1)S(=O)(=O)Cc1c(C(=O)N3CCOC4(CC4)C3)nn(-c3ccc(CN4CCOCC4)cc3)c1-2 [Example 9, (7-methyl-1-(4-(morpholinomethyl)phenyl)-5,5-dioxido-1,4-dihydrothiochromeno[4,3-c]pyrazol-3-yl)(4-oxa-7-azaspiro[2.5]octan-7-yl)methanone]
PI3Kδ enzyme
  IC50: 25 nM
PI3Kα enzyme
  IC50: 1760 nM
PI3Kγ enzyme
  IC50: > 10000 nM
PI3Kβ enzyme
  IC50: 1550 nM

## O=C(c1nn(-c2ccc(CN3CCOCC3)cc2)c2c1CS(=O)(=O)c1c-2ccc(Cl)c1F)N1CCOC2(CC2)C1 [Example 11, (7-chloro-6-fluoro-1-(4-(morpholinomethyl)phenyl)-5,5-dioxido-1,4-dihydrothiochromeno[4,3-c]pyrazol-3-yl)(4-oxa-7-azaspiro[2.5]octan-7-yl)methanone]
PI3Kδ enzyme
  IC50: 10.5 nM
PI3Kα enzyme
  IC50: 441 nM
PI3Kγ enzyme
  IC50: 8920 nM
PI3Kβ enzyme
  IC50: 736 nM

## Cc1cccc2c1-c1c(c(C(=O)N3CCOC4(CC4)C3)nn1-c1ccc(CN3CCOCC3)cc1)CS2(=O)=O [Example 12, (9-methyl-1-(4-(morpholinomethyl)phenyl)-5,5-dioxido-1,4-dihydrothiochromeno[4,3-c]pyrazol-3-yl)(4-oxa-7-azaspiro[2.5]octan-7-yl)methanone]
PI3Kδ enzyme; [1]
  IC50: 5.8 nM
